Data as given in a melting point compilation (Tetko et al.; mined from patent text by program, amines drawn as free bases though some values may be those of a salt).

Row | SMILES | melting point [°C]
1 | COc1ccc(N2C(=O)N(c3cccc(C(N)=O)c3)c3nc(Nc4cccc(CCN5CCN(C)CC5)c4)ncc3C2C)cc1 (stereo not drawn) | 243 to 251
2 | O=C1Cc2c3c(cc4ccccc24)N(c2ccccc2)C(=O)CN13 | 296 to 300
3 | CSC1=Nc2ccccc2Cc2nccn21 | 200 to 201
4 | COc1cc2c(Nc3ccc(Oc4cccnc4)cc3)c(C#N)cnc2cc1N1CCC(N2CCCC2)CC1 | 194 to 196
5 | CCCCCCCCCC(C)NC(=O)C=C(C)c1cccc(NC(=O)CCCC(=O)O)c1 (stereo not drawn) | 115 to 118
6 | COC(=O)c1cc(-n2cnnn2)ccc1OC | 185 to 187
7 | c1cc(-c2ccc3c(c2)OCO3)cc(Nc2ccc3c(c2)OCCO3)n1 | 116 to 118
8 | Cc1ccc2c(c1)SC(c1ccc(OCCCCBr)cc1)C(=O)N2C (stereo not drawn) | 75 to 76
9 | Cc1cc(C(=O)N2Cc3ccc(C(=O)N(C)C[C@H](O)[C@H]4OC(=O)O[C@@H]4[C@H](O)CO)n3Cc3ccccc32)ccc1C1=CCCCC1 | 166 to 175
10 | Nc1cccc(-n2c(=O)c3c(Cc4ccccc4)n[nH]c3c3cccnc32)c1 | 277 to 279
11 | Cc1ccc(C(=O)CC(=O)C(F)F)cc1Cl | 40 to 41
12 | CC(C)(C)C(=O)Nc1nc(O)c2c(n1)NCC(CCC1CCC(C(=O)O)CC1)C2 (stereo not drawn) | 218 to 234
13 | COc1cc2ncc(C(N)=O)c(Nc3cccc(Br)c3)c2cc1OC | 239 to 242
14 | N#CC(Cc1ccccc1)=NNc1ccc(C(O)(C(F)(F)F)C(F)(F)F)cc1 | 164 to 167
15 | COc1c(C(N)=O)sc(C(N)=O)c1N=NN(C)C | 226 to 228
16 | C=C(C)C(=O)Nc1ccc(C(=O)O)c(O)c1 | 220 to 222
17 | CCCN1CCC23c4cccc(O)c4OC2C2CCC3(C1)C(COC)C2 (stereo not drawn) | 130 to 131
18 | COc1ccc(C(=O)Nc2ccccc2)c(C(=O)Cc2ccccn2)c1 | 145 to 148
19 | CCCCCCCCCCCCCCCCNS(=O)(=O)c1ccc(Cl)c([N+](=O)[O-])c1 | 91 to 93

Row | SMILES | melting point [°C]
20 | COc1ccc(F)c(C=C2c3ccccc3CCc3ccccc32)c1 | 111
21 | CC(C)CCC1C(=O)N(CCl)S(=O)(=O)N1C (stereo not drawn) | 59 to 60
22 | CCOC(=O)c1ccc(-c2nc(-c3ccccc3)ccc2Cl)cc1 | 81 to 82
23 | CNC1CN(c2c(F)cc3c(=O)c(C(=O)O)cn(C4CC4)c3c2F)C1 | 270 to 272
24 | CC(C)(C)C(=O)N[C@@H](Cc1ccccc1)C(=O)N[C@@H](Cc1ccccc1)C(=O)NC(CO)Cc1c[nH]cn1 (stereo partly drawn) | 124 to 130
25 | Cc1ccc(-c2ccc(C(=O)Nc3ccc4cc(CN5CCCC5)ccc4c3)cn2)cc1 | 260 to 262
26 | CCOC(=O)Cc1c(C(=O)OCC)c(C)c(C(=O)OCC)n1CC | 142 to 145
27 | Cc1ccc2c(=O)[nH]c(N3CCN(C)CC3)cc2c1 | 242 to 243
28 | O=C1CCOc2c1ccc(O)c2CCCc1ccccc1 | 110 to 112
29 | NS(=O)(=O)c1cc2c(s1)SCCCC2=O | 185 to 186
30 | CCOC(=O)c1c(CC(=O)O)n(-c2ccc(OC(F)(F)F)cc2)c2ccc(Oc3ccc(CCl)cn3)cc12 | 168 to 170
31 | CCC1(CC(O)(CBr)c2ccccc2)C(=O)c2ccccc2C1=O (stereo not drawn) | 89 to 92
32 | CCc1cccc(CNC[C@@H](O)[C@H](Cc2cc(F)cc(F)c2)NC(=O)c2ccc(CS(C)(=O)=O)s2)c1 | 128 to 131
33 | O=c1cc(N2CCOCC2)oc2cc(OS(=O)(=O)C(F)(F)F)ccc12 | 143 to 145
34 | COCOc1cc(C(F)(F)F)ccc1-c1cc(-c2cccc([N+](=O)[O-])c2)c(C#N)c(NC(=O)c2cccs2)n1 | 139 to 140
35 | NC(=O)c1sc2nc(N3CCC(NCC(O)c4cc5ccccc5cn4)CC3)cc(C(F)(F)F)c2c1N (stereo not drawn) | 169 to 172
36 | O=C(Cl)c1ccccc1NC(=O)c1ccccc1-c1ccccc1 | 118 to 120
37 | CCOC(=O)C(CC(N)=O)(C(=O)OCC)n1cccc1 | 94 to 95
38 | Nc1cccc2c3c([nH]c12)C(=O)CCC3 | 233 to 234
